In patent US7686852B2, “Monoazo dyes” (Clariant Finance (BVI) Limited, priority 2004, dated 2010):

Key:
[1] = Comparative Test Series 3: stability of dye solution after cooling to 25° C. and 48 hours, filtration test; format: physicochemical; design: key to Aspect of the solution after the 48 hours: 1): after cooling down turned immediately cloudy; 2): remained clear after cooling down; key to Grade of the visual inspection of the upper filter: a grade of 5 signifies no residue; 4 signifies little, fine residues; 3 signifies bigger residues; 2 signifies coarse residues; 1 signifies a compact layer of precipitated dyestuff; conditions: for Aspect of the solution after the 48 hours: dissolved at 90° C., kept at 25° C. for 48 hour; for time for passing of the 200 ml of dye solution trough the 2 filter layers / Grade of the visual inspection of the upper filter: after 48 hour at 25° C.; for Grade of the visual inspection of the upper filter: filtered through 2 paper filters
Protocol: In 160 ml of water a certain amount of dyestuff was dissolved at 90° C. and the resulting solution was diluted to 200 ml by adding water of 90° C. This solution was put in a water bath kept at 25° C. and after the dye solution was at 25° the dye solution was let for 48 hour without stirring or shaking at 25° C.
The solution was visually inspected first and the filtrated trough 2 layers of paper filters of 70 mm diameter (Typ 1450 CV obtainable from Schleicher & Schuell MicroScience GmbH
Hahnestrasse 3; D-37586 Dassel). The time for passing of the 200 ml of dye solution was measured and the upper filter was inspected visually. Grades are given and a grade of 5 signifies no residue, 4 signifies little, fine residues, 3 signifies bigger residues, 2 signifies coarse residues and 1 signifies a compact layer of precipitated dyestuff.

[2] = Solubility in water / stability of stock solutions; format: physicochemical; conditions: room temperature
[3] = hot water, then cooling; cited from earlier work

Row | Aspect of the solution after the 48 hours ([1]; 6 g/Liter in water) | time for passing of the 200 ml of dye solution trough the 2 filter layers ([1]; 6 g/Liter) [s] | Grade of the visual inspection of the upper filter ([1]; 6 g/Liter) | Aspect of the solution after the 48 hours ([1]; 12 g/Liter in water) | time for passing of the 200 ml of dye solution trough the 2 filter layers ([1]; 12 g/Liter) [s] | Grade of the visual inspection of the upper filter ([1]; 12 g/Liter) | Aspect of the solution after the 48 hours ([1]; 20 g/Liter in water) | time for passing of the 200 ml of dye solution trough the 2 filter layers ([1]; 20 g/Liter) [s] | Grade of the visual inspection of the upper filter ([1]; 20 g/Liter) | Aspect of the solution after the 48 hours ([1]; 30 g/Liter in water) | time for passing of the 200 ml of dye solution trough the 2 filter layers ([1]; 30 g/Liter) [s] | Grade of the visual inspection of the upper filter ([1]; 30 g/Liter) | SMILES | stability of stock solutions [2] | solubility in water [3]
1 | 2) | 6 | 4 | 2) | 7 | 3 to 4 | 2) | 7 | 3 | 2) | 8 | 2 to 3 | Cc1cc(OS(=O)(=O)c2ccc(C(C)(C)C)cc2)ccc1/N=N/c1ccc(Nc2ccc(S(=O)(=O)O)cc2[N+](=O)[O-])cc1 [Example 1] | remain clear for several weeks even at room temperature | 
2 | 1) | 16 | 4 | 1) | 27 | 3 | 1) | 33 | 2 to 3 | 1) | 95 | 1 to 2 | Cc1ccc(S(=O)(=O)Oc2ccc(/N=N/c3ccc(Nc4ccc(S(=O)(=O)O)cc4[N+](=O)[O-])cc3)c(C)c2)cc1 |  | soluble in hot water, but partly reprecipitates on cooling
